Legend:
[1] = tested on: pig coronary artery; assay: Vascular contraction of pig coronary artery induced by acetylcholine; conditions: Sus scrofa, 10^-5 M, preincubated 15 minutes
Experimental: (§1) Studies are carried out on rings, 3 mm in length, - or of coronary arteries from pigs anesthetized with nesdonal (8 mg/kg intravenously). The vascular rings are immersed in a normal physiological solution or in a physiological solution lacking calcium (+0.2 mM of the chelating agent EGTA), which is thermostatically regulated at 37° C. and aerated with a 95% O2 +5% CO2 mixture. The rings are linked to a STATHAM tension sensor (UC2-GOULD). The optimal tension for each vessel is applied and a stabilization period of 90 min is observed for the preparations. a) Antivasoconstrictive activity of the compounds of the invention in a physiological medium.

[2] = tested on: rat aortas; assay: Contraction of rat aortas induced by potassium depolarization (hyperpotassium medium); parameters: species or system WISTAR rat; conditions: read-out: IC50 (concentration inhibiting by 50% the contraction of rat aortas induced by potassium depolarization)
Text: The rings are linked to a STATHAM tension sensor (UC2-GOULD).

[3] = tested on: rabbit aorta; assay: Contraction of rabbit aorta induced by endothelin in a normal physiological medium; parameters: species or system New Zealand rabbit; conditions: Oryctolagus cuniculus, read-out: IC50, endothelin stimulus
Experimental: as §1, with “- or of coronary arteries from pigs anesthetized with nesdonal (8 mg/kg intravenously).” left out

[4] = tested on: isolated heart; assay: Isolated heart subjected to hypoxia-reoxygenation; parameters: species or system WISTAR rat; conditions: after 30 minutes of reoxygenation
Experimental: The heart is removed from WISTAR rats (325-375 g). The heart is rapidly perfused according to the technique of LANGENDORFF at a constant pressure of 101.310^2 Pa and electrically stimulated at 5 Hz. Isovolumetric contractions are recorded by means of a polyethylene ballonet linked to a pressure sensor (P23-GOULD) introduced into the left ventricle and inflated so as to obtain a diastolic pressure of between 6.710^2 and 13.310^2 Pa. c) Protective effect of the compounds of the invention on an isolated heart subjected to hypoxia-reoxygenation. An experimental procedure similar to that described in the preceding test is followed, the ischemia-reperfusion stage being replaced by a 60 min hypoxia produced by the administration of a 95% N2 +5% CO2 gaseous mixture during this period and followed by a 30 min reoxygenation. The test compounds are incubated for 15 min before and during the period of hypoxia.

[5] = tested on: rabbit aorta; assay: Contraction of rabbit aorta induced by angiotensin II in a medium without calcium; parameters: species or system New Zealand rabbit; conditions: Oryctolagus cuniculus, 10^-5 M, medium lacking calcium
Experimental: as §1, with “- or of coronary arteries from pigs anesthetized with nesdonal (8 mg/kg intravenously).” left out, “b)” for “a)”, “medium without calcium.” for “physiological medium.”

`CN(CC1CCN(CCCOc2ccc(F)cc2)CC1)S(=O)(=O)c1cccc2cnccc12.Cl.Cl` [Example 17, N-Methyl-N-{[1-[3-(p-fluorophenoxy)propyl]-4-piperidyl]methyl}-5-isoquinolinesulfonamide dihydrochloride] was tested, and the inhibition at 10 µM [1] was 64%, the IC50 [2] was 1.5 µM and the IC50 [3] was 3.3 µM. For the same compound, the “increase of the contraction relative to the control hearts” value [4] was “more than 100%” and the inhibition at 10 µM [5] was 21%.

— patent US5208243A, “5-isoquinolinesulfonamides” (Adir et Compagnie, priority 1991, dated 1993)
